Assay results reported in PubChem BioAssay AID1963835 (Molecular Pharmacology Branch, DTP, NCI, 2024).
“And” between values parts separate entries of the source, which are not always exact repeats. Equal values may be shown once.

Test system: 699152-130-R-J1-PDC complex spheroid viability
Experiment: Anticancer human tumor 699152-130-R-J1-PDC patient-derived pancreatic carcinoma cell line growth inhibition [POLQ]
Conditions: for viability, T/C: stronger effect = lower value
Method: Multicellular complex tumor spheroid response to Polymerase (POL) inhibitors (novobiocin, ART-558, RP6685) in combination with a variety of drugs and investigational agents in selected tumor cell lines
The POL inhibitors (novobiocin, ART-558, and RP6685) were evaluated both individually and in combination with standard of care and investigational anticancer small molecules within a complex spheroid model of solid tumors. . Complex spheroids include a stromal component modeled by human endothelial cells (HUVEC) and fibroblasts modeled by human mesenchymal stem cells (MSCs). The concentration ranges selected for each drug and investigational agent were based upon clinically achievable concentrations if the clinical Cmax of the agent was known.
Compounds. The drugs and investigational agents: novobiocin (NSC847541), ART-558 (NSC835418), RP-6685 (NSC848927), peposertib (NSC802822), ceralasertib (NSC780249), elimusertib (NSC800525), camonsertib (NSC841442), AZD-1390 (NSC803789), olaparib (NSC753686), talazoparib (NSC767125), rucaparib (NSC756644), sotorasib (NSC818433), MRTX-1133 (NSC836407), SN-38 (NSC673596), topotecan (NSC609699), epotoside (NSC141540), doxorubicin (NSC123127), gemcitabine (NSC613327), 5-fluorouracil (NSC19893), paclitaxel (NSC125973), vemurafenib (NSC761431), MSA-2 (NSC828583), SN-011 (NSC837082), adavosertib (NSC754352), prexasertib (NSC758257), carboplatin (NSC241240) and oxaliplatin (NSC266046), were obtained from the National Cancer Institute (NCI) Developmental Therapeutics Program Chemical Repository (21). The FDA-approved anticancer drug set is available from the Developmental Therapeutics Program at https://dtp.cancer.gov/organization/dscb/obtaining/. […] The stock solutions were prepared in dimethyl sulfoxide (DMSO, Sigma-Aldrich, St. Louis, MO, cat. D2650), except for the platinum compounds which were prepared in saline (Quality Biological, Gaithersburg, MD, cat. 114-055-101), at 800-fold the tested concentration and stored at -70 degrees C prior to their use. All drugs and investigational agents were tested over a range starting from a high concentration at or near the clinical Cmax and decreasing in half-log increments. If the clinical Cmax for an agent had not been determined, the highest concentration tested was 10 microM, except for SN-38, which was tested at a high concentration of 1 microM.
Cell Culture. All cells were maintained in an incubator at 37 degrees C and 5% CO2 with 95% humidity. The PDC lines were cultured according to standard operating procedures established by the NCI PDMR (https://pdmr.cancer.gov). Table 3 of the manuscript, lists the cell lines along with the number of the three cell types plated to form the mct-spheroids and media for tumor cell growth. After thawing, all PDC lines, except 997537-175-T-J1-PDC and 415267-285-R-J2-PDC, were cultured in Matrigel-coated flasks prepared with a working solution of 1X Ham's F-12 nutrient mix, without supplementation (Thermo Fisher Scientific, cat. 11765054), 100 U/mL penicillin-streptomycin (Thermo Fisher Scientific, cat. 15140122), and 2.5% Matrigel (Corning Inc., Corning, NY, cat. 354248) for the first three passages. The two PDC lines 997537-175-T-J1-PDC and 415267-285-R-J2-PDC were cultured on uncoated flasks. The 857933-349-R-J2-PDC line was cultured in 6C/Colon 1B media containing advanced DMEM/F-12 (Thermo Fisher Scientific, cat. 12634028), 10 mM HEPES (Thermo Fisher Scientific, cat. 15630080), 1X GlutaMAX supplement (Thermo Fisher Scientific, cat. 35050061), 0.1 mg/mL primocin (InvivoGen, San Diego, CA, cat. ant-pm-2), 10% defined fetal bovine serum, heat inactivated (HyClone Laboratories Inc., Logan, UT, cat. SH30070.03HI), 50% L-WRN conditioned media (ATCC, cat. CRL-3276), 1.25 mM N-Acetyl-L-cysteine (Sigma-Aldrich, cat. A9165), 10 mM nicotinamide (Sigma-Aldrich, cat. N0636), 1X B-27 supplement (Thermo Fisher Scientific, cat. 17504044), 1X N-2 supplement (Thermo Fisher Scientific, cat. […]

[1] = curve of first compound, second compound 0.0316 µM
[2] = curve of first compound, second compound 0.1 µM
[3] = curve of first compound, second compound 0.316 µM
[4] = curve of first compound, second compound 1 µM
[5] = curve of first compound, second compound 3.16 µM
[6] = curve of first compound, second compound 10 µM
[7] = second compound 0.0316 µM, first compound 0.0316 µM
[8] = second compound 0.0316 µM, first compound 0.1 µM
[9] = second compound 0.0316 µM, first compound 0.316 µM
[10] = second compound 0.0316 µM, first compound 1 µM
[11] = second compound 0.1 µM, first compound 0.0316 µM
[12] = second compound 0.1 µM, first compound 0.1 µM
[13] = second compound 0.1 µM, first compound 0.316 µM
[14] = second compound 0.1 µM, first compound 1 µM
[15] = second compound 0.316 µM, first compound 0.0316 µM
[16] = second compound 0.316 µM, first compound 0.1 µM
[17] = second compound 0.316 µM, first compound 0.316 µM
[18] = second compound 0.316 µM, first compound 1 µM
[19] = second compound 1 µM, first compound 0.0316 µM
[20] = second compound 1 µM, first compound 0.1 µM
[21] = second compound 1 µM, first compound 0.316 µM
[22] = second compound 1 µM, first compound 1 µM
[23] = second compound 3.16 µM, first compound 0.0316 µM
[24] = second compound 3.16 µM, first compound 0.1 µM
[25] = second compound 3.16 µM, first compound 0.316 µM
[26] = second compound 3.16 µM, first compound 1 µM
[27] = second compound 10 µM, first compound 0.0316 µM
[28] = second compound 10 µM, first compound 0.1 µM
[29] = second compound 10 µM, first compound 0.316 µM
[30] = second compound 10 µM, first compound 1 µM
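Note: spheroids exposed to agents for 7 days before viability reading.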
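Throughout, for viability, T/C: percent of DMSO vehicle control viability so 100% = vehicle and 0% = no viable signal.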

Structure (SMILES): C=CCn1c(=O)c2cnc(Nc3ccc(N4CCN(C)CC4)cc3)nc2n1-c1cccc(C(C)(C)O)n1 + Nc1ccc(C#CCN(C(=O)Cc2ncc(C(F)(F)F)cc2C(F)(F)F)c2ccc(F)cc2)nn1
- IC50 [1]: > 1 µM
- IC50 [2]: > 1 µM
- IC50 [3]: > 1 µM
- IC50 [4]: > 1 µM
- IC50 [5]: > 1 µM
- IC50 [6]: > 1 µM
- viability, T/C (second compound 0.0316 µM, first compound 0.00316 µM): 94.2%
- viability, T/C (second compound 0.0316 µM, first compound 0.01 µM): 100%
- viability, T/C [7]: 103%
- viability, T/C [8]: 93.2%
- viability, T/C [9]: 96.1%
- viability, T/C [10]: 78.2%
- viability, T/C (second compound 0.1 µM, first compound 0.00316 µM): 105%
- viability, T/C (second compound 0.1 µM, first compound 0.01 µM): 98%
- viability, T/C [11]: 98.1%
- viability, T/C [12]: 99.1%
- viability, T/C [13]: 89%
- viability, T/C [14]: 68.8%
- viability, T/C (second compound 0.316 µM, first compound 0.00316 µM): 104%
- viability, T/C (second compound 0.316 µM, first compound 0.01 µM): 113%
- viability, T/C [15]: 108%
- viability, T/C [16]: 106%
- viability, T/C [17]: 91%
- viability, T/C [18]: 71.9%
- viability, T/C (second compound 1 µM, first compound 0.00316 µM): 97.9%
- viability, T/C (second compound 1 µM, first compound 0.01 µM): 94.7%
- viability, T/C [19]: 98.5%
- viability, T/C [20]: 105%
- viability, T/C [21]: 87.3%
- viability, T/C [22]: 74.7%
- viability, T/C (second compound 3.16 µM, first compound 0.00316 µM): 107%
- viability, T/C (second compound 3.16 µM, first compound 0.01 µM): 115%
- viability, T/C [23]: 100%
- viability, T/C [24]: 112%
- viability, T/C [25]: 101%
- viability, T/C [26]: 82.8%
- viability, T/C (second compound 10 µM, first compound 0.00316 µM): 122%
- viability, T/C (second compound 10 µM, first compound 0.01 µM): 126%
- viability, T/C [27]: 109%
- viability, T/C [28]: 104%
- viability, T/C [29]: 104%
- viability, T/C [30]: 81.7%

Structure (SMILES): CCc1cc2c(N3CCc4c(cc(Cn5ccnc5)cc4-c4cn(C)nc4C(F)(F)F)C3=O)cc(C)nc2c(OC)n1
- viability, T/C (compound 0.0316 µM): 102% and 78.7% and 85.8%
- viability, T/C (compound 0.1 µM): 92.1% and 90.3% and 81.5%
- viability, T/C (compound 0.316 µM): 89.2% and 94.7% and 93.9%
- viability, T/C (compound 1 µM): 95.1% and 94.6% and 98.4%
- viability, T/C (compound 3.16 µM): 102% and 105% (2×)
- viability, T/C (compound 10 µM): 97% and 99% and 107%
- IC50 (curve of compound): > 10 µM

Structure (SMILES): CC(C)n1c(=O)n(C)c2cnc3cc(F)c(-c4ccc(OCCCN5CCCCC5)nc4)cc3c21 + Cc1cccc(N(C)C(=O)C2C(O)CCN2c2nc(C)cc(C(F)(F)F)c2C#N)c1
- IC50 [1]: > 10 µM
- IC50 [2]: > 10 µM
- IC50 [3]: > 10 µM
- IC50 [4]: > 10 µM
- IC50 [5]: > 10 µM
- IC50 [6]: > 10 µM
- viability, T/C [7]: 94.9%
- viability, T/C [8]: 98.5%
- viability, T/C [9]: 100%
- viability, T/C [10]: 110%
- viability, T/C (second compound 0.0316 µM, first compound 3.16 µM): 107%
- viability, T/C (second compound 0.0316 µM, first compound 10 µM): 83.2%
- viability, T/C [11]: 97.3%
- viability, T/C [12]: 101%
- viability, T/C [13]: 112%
- viability, T/C [14]: 109%
- viability, T/C (second compound 0.1 µM, first compound 3.16 µM): 104%
- viability, T/C (second compound 0.1 µM, first compound 10 µM): 98.3%
- viability, T/C [15]: 111%
- viability, T/C [16]: 94.2%
- viability, T/C [17]: 104%
- viability, T/C [18]: 118%
- viability, T/C (second compound 0.316 µM, first compound 3.16 µM): 114%
- viability, T/C (second compound 0.316 µM, first compound 10 µM): 94.8%
- viability, T/C [19]: 113%
- viability, T/C [20]: 116%
- viability, T/C [21]: 98.7%
- viability, T/C [22]: 121%
- viability, T/C (second compound 1 µM, first compound 3.16 µM): 113%
- viability, T/C (second compound 1 µM, first compound 10 µM): 87.3%
- viability, T/C [23]: 104%
- viability, T/C [24]: 116%
- viability, T/C [25]: 103%
- viability, T/C [26]: 104%
- viability, T/C (second compound 3.16 µM, first compound 3.16 µM): 112%
- viability, T/C (second compound 3.16 µM, first compound 10 µM): 78.7%
- viability, T/C [27]: 98.1%
- viability, T/C [28]: 84.4%
- viability, T/C [29]: 123%
- viability, T/C [30]: 111%
- viability, T/C (second compound 10 µM, first compound 3.16 µM): 106%
- viability, T/C (second compound 10 µM, first compound 10 µM): 84.7%

Structure (SMILES): CNCc1ccc(-c2[nH]c3cc(F)cc4c3c2CCNC4=O)cc1
- viability, T/C (compound 0.0316 µM): 96.2% and 95.6% and 99%
- viability, T/C (compound 0.1 µM): 99.8% and 91.1% and 101%
- viability, T/C (compound 0.316 µM): 118% and 90.3% and 99.8%
- viability, T/C (compound 1 µM): 106% and 108% and 112%
- viability, T/C (compound 3.16 µM): 119% and 117% and 138%
- viability, T/C (compound 10 µM): 111% and 109% and 130%
- IC50 (curve of compound): > 10 µM

Structure (SMILES): CC[C@@]1(O)C(=O)OCc2c1cc1n(c2=O)Cc2cc3c(CN(C)C)c(O)ccc3nc2-1
- viability, T/C (compound 0.000316 µM): 93.1% and 110% and 102%
- viability, T/C (compound 0.001 µM): 97.6% and 90% and 108%
- viability, T/C (compound 0.00316 µM): 98.8% and 105% and 99.5%
- viability, T/C (compound 0.01 µM): 94.2% and 111% and 93.4%
- viability, T/C (compound 0.0316 µM): 72.9% and 81.9% and 79.4%
- viability, T/C (compound 0.1 µM): 59.6% and 68.9% and 54.6%
- IC50 (curve of compound): > 0.1 µM
